{"source": "patent US20250040554A1", "about": "“NEW USES OF PHENMEDIPHAM AND HERBICIDAL COMBINATIONS COMPRISING PHENMEDIPHAM” (BAYER AKTIENGESELLSCHAFT, priority 2021, published 2025)", "type_in_all_cases": "in vivo", "key": {"[1]": {"tested_on": "ECHCG=Echinochloa crus-galli", "assay": "Greenhouse weed control trial ECHCG", "conditions": "25 DAA", "source_text": "(§1) The respective (combinations of) materials were applied to weed plants in the greenhouse or in the field at the respective growth stage indicated hereinafter for the different weed species mentioned below. The respective (combinations of) active ingredients were also applied to corn, cotton and soybean crop plants, and the selectivity (damage) in these crop plants rated (assessed).\n(§2) Visual scoring of the damage to the trial plants took place after the time mentioned in the respective Table—indicated in number of Days After Application (DAA). Damage and development of all above-ground parts of the respective plants was recorded. Visual rating was done on a percentage scale in relation to the untreated control (100%=all plants dead; 50%=green plant biomass reduced by 50%, and 0%=no discernible difference=like control plot).\n(§3) The trials in the greenhouse were sprayed with an application volume of 300 L/ha with an automated track sprayer. The plots in the field were sprayed with an application volume of 140 L/ha with a hand held spray boom.\nIn greenhouse selectivity trials and trials herbicidal activity trials against weed plants were investigated in post-emergence application of the respective material(s).\nHerbicidal activity against different weeds (undesired plants) was calculated as follows.\n(§4) wherein • A, B=respective value in percent of active ingredient A at a dose rate of a g/ha, ingredient B at a dose rate of b g/ha • E^C=Expected value according to Colby (S. R. Colby; Weeds 15 (1967), 20-22) in % at a dose rate of a+b, each in g/ha • Δ=Difference (in %) between measured value E and expected value E^C (%) (measured value minus expected value)\n• measured value E is greater than E^C:->synergism (+Δ) • measured value E is equal to E^C:->additive effect • measured value E is smaller than E^C:->antagonism (−Δ)\nThe weed control activity of different (combinations of) materials was investigated in greenhouse trials for the following weed species: • STEME=Stellaria media • ECHCG=Echinochloa crus-galli • BROTE=Bromus tectorum\nPhenmedipham amd Mesotrione were applied at varying application rates (Dose Rate) to the weed plant species STEME, ECHCG and BROTE. The results are shown in Tables 2a to 2c as the % control when assessed 25 days after application (25 DAA).\nIn all the trials of Table Tables 2a to 2c Mero® (rapeseed oil methyl ester) was added to the respective spray mixture in an amount corresponding to 1 L/ha for PMP, 1 L/ha for MST, and 2 L/ha for mixtures of PMP+MST."}, "[2]": {"tested_on": "AMARE=Amaranthus retroflexus", "assay": "Weed control field trial AMARE", "conditions": "15 DAA", "source_text": "as §1, §2, §4\nAfter the harmful plants had emerged, they were treated, at the respective growth stage indicated, with the respective materials as indicated at a water application rate of 187 L/ha.\nAfter the treatment (15 days after the treatment), the herbicidal activity of respective material was scored visually at the same time by comparing the differently treated plots with the untreated control plots. The score figures of the different plots were averaged.\n(§5) The dose rates of herbicidal ingredients used in each case are indicated for the respective active ingredient and refer to the amount of active ingredient per hectare (g/ha).\nThe weed control activity of different (combinations of) herbicidal active ingredients was investigated in field trials for the following weed species: • AMARE=Amaranthus retroflexus • KCHSC=Kochia scoparia • PANRA=Panicum ramosum\nThe growth stage of AMARE was BBCH 19, the growth stage of KCHSC was BBCH 19 and the growth stage of PANRA was BBCH 22 at the time of application of the respective material.\nPhenmedipham and the respective aroylcyclohexanedione herbicide were applied at varying application rates (Dose Rate) to the different species of weed plants. The results are shown in Tables 4a to 4d as the % control when assessed 15 days after application (DAA), respectively.\nIn all the trials of Tables 4a to 4d Mero® (rapeseed oil methyl ester) was added to the respective spray mixture in an amount corresponding to 1 L/ha for PMP, 1 L/ha for the respective aroylcyclohexanedione herbicide, and 2 L/ha for mixtures of PMP+the respective aroylcyclohexanedione herbicide."}, "[3]": {"tested_on": "BIDPI=Bidens pilosa", "assay": "Weed control field trial BIDPI", "source_text": "as §1, §2, §3, §4\n(§6) The growth stages of the different weed species are indicated according to the BBCH monograph “Growth stages of mono- and dicotyledonous plants”, 2nd edition, 2001, ed. Uwe Meier, Federal Biological Research Centre for Agriculture and Forestry (Biologische Bundesanstalt für Land und Forstwirtschaft).\n(§7) After the harmful plants had emerged, they were treated, at the respective growth stage indicated, with the respective materials as indicated at a water application rate of 140 L/ha.\n(§8) After the treatment (21 or 35 days after application of the respective material), the herbicidal activity of respective material was scored visually at the same time by comparing the differently treated plots with the untreated control plots. The score figures of the different plots were averaged.\nas §5\n(§9) The weed control activity of different (combinations of) herbicidal active ingredients was investigated in field trials for the following weed species: • AMAVI=Amaranthus viridis • IPOAO=Ipomoea aristolochiaefolia • EPHHL=Euphorbia heterophylla • BIDPI=Bidens pilosa • BRADC=Brachiaria decumbens • ELEIN=Eleusine indica • CCHEC=Cenchrus echinatus\n(§10) The growth stage of AMAVI was BBCH 13, the growth stage of IPOAO was BBCH 15, the growth stage of EPHHL was BBCH 13, the growth stage of BIDPI was BBCH 14, the growth stage of BRADC was BBCH 23, the growth stage of ELEIN was BBCH 11 and the growth stage of CCHEC was BBCH 12 at the time of application of the respective material.\n(§11) Phenmedipham and Mesotrione were applied at varying application rates (Dose Rate) to the different species of weed plants. The results are shown in Tables 3a to 3e as the % control when assessed 21 and 35 days after application (DAA), respectively.\n(§12) In all the trials of Tables 3a to 3e Mero® (rapeseed oil methyl ester) was added to the respective spray mixture in an amount corresponding to 1 L/ha for PMP, 1 L/ha for MST, and 2 L/ha for mixtures of PMP+MST."}, "[4]": {"tested_on": "ELEIN=Eleusine indica", "assay": "Weed control field trial ELEIN", "source_text": "as §1, §2, §3, §4, §6, §7, §8, §5, §9, §10, §11, §12"}, "[5]": {"tested_on": "AMAVI=Amaranthus viridis", "assay": "Weed control field trial AMAVI", "source_text": "as §1, §2, §3, §4, §6, §7, §8, §5, §9, §10, §11, §12"}}, "data": [{"compound": "COC(=O)Nc1cccc(OC(=O)Nc2cccc(C)c2)c1", "note": "[PMP, 3-[(methoxyformyl)amino]phenyl (3-methylphenyl)carbamate]", "values": [{"measurement": "% control ECHCG", "setting": "[1]; 12.5 g/ha", "result": 0, "unit": "%"}, {"measurement": "% control ECHCG", "setting": "[1]; 25 g/ha", "result": 0, "unit": "%"}, {"measurement": "% control ECHCG", "setting": "[1]; 50 g/ha", "result": 0, "unit": "%"}, {"measurement": "% control ECHCG", "setting": "[1]; 75 g/ha", "result": 0, "unit": "%"}, {"measurement": "% control ECHCG", "setting": "[1]; 100 g/ha", "result": 0, "unit": "%"}, {"measurement": "% control ECHCG", "setting": "[1]; 125 g/ha", "result": 0, "unit": "%"}, {"measurement": "% control ECHCG", "setting": "[1]; 300 g/ha", "result": 10, "unit": "%"}, {"measurement": "% control AMARE", "setting": "[2]; 150 g/ha", "result": 0, "unit": "%"}, {"measurement": "% control AMARE", "setting": "[2]; 300 g/ha", "result": 5, "unit": "%"}, {"measurement": "% control BIDPI", "setting": "[3]; 75 g/ha, 21 DAA", "result": 0, "unit": "%"}, {"measurement": "% control BIDPI", "setting": "[3]; 75 g/ha, 35 DAA", "result": 0, "unit": "%"}, {"measurement": "% control BIDPI", "setting": "[3]; 100 g/ha, 21 DAA", "result": 0, "unit": "%"}, {"measurement": "% control BIDPI", "setting": "[3]; 100 g/ha, 35 DAA", "result": 0, "unit": "%"}, {"measurement": "% control BIDPI", "setting": "[3]; 125 g/ha, 21 DAA", "result": 0, "unit": "%"}, {"measurement": "% control BIDPI", "setting": "[3]; 125 g/ha, 35 DAA", "result": 0, "unit": "%"}, {"measurement": "% control BIDPI", "setting": "[3]; 250 g/ha, 21 DAA", "result": 0, "unit": "%"}, {"measurement": "% control BIDPI", "setting": "[3]; 250 g/ha, 35 DAA", "result": 0, "unit": "%"}, {"measurement": "% control ELEIN", "setting": "[4]; 75 g/ha, 21 DAA", "result": 0, "unit": "%"}, {"measurement": "% control ELEIN", "setting": "[4]; 75 g/ha, 35 DAA", "result": 0, "unit": "%"}, {"measurement": "% control ELEIN", "setting": "[4]; 100 g/ha, 21 DAA", "result": 0, "unit": "%"}, {"measurement": "% control ELEIN", "setting": "[4]; 100 g/ha, 35 DAA", "result": 0, "unit": "%"}, {"measurement": "% control ELEIN", "setting": "[4]; 125 g/ha, 21 DAA", "result": 0, "unit": "%"}, {"measurement": "% control ELEIN", "setting": "[4]; 125 g/ha, 35 DAA", "result": 0, "unit": "%"}, {"measurement": "% control ELEIN", "setting": "[4]; 250 g/ha, 21 DAA", "result": 0, "unit": "%"}, {"measurement": "% control ELEIN", "setting": "[4]; 250 g/ha, 35 DAA", "result": 0, "unit": "%"}, {"measurement": "% control AMAVI", "setting": "[5]; 75 g/ha, 21 DAA", "result": 0, "unit": "%"}, {"measurement": "% control AMAVI", "setting": "[5]; 75 g/ha, 35 DAA", "result": 0, "unit": "%"}, {"measurement": "% control AMAVI", "setting": "[5]; 100 g/ha, 21 DAA", "result": 0, "unit": "%"}, {"measurement": "% control AMAVI", "setting": "[5]; 100 g/ha, 35 DAA", "result": 0, "unit": "%"}, {"measurement": "% control AMAVI", "setting": "[5]; 125 g/ha, 21 DAA", "result": 0, "unit": "%"}, {"measurement": "% control AMAVI", "setting": "[5]; 125 g/ha, 35 DAA", "result": 0, "unit": "%"}, {"measurement": "% control AMAVI", "setting": "[5]; 250 g/ha, 21 DAA", "result": 0, "unit": "%"}, {"measurement": "% control AMAVI", "setting": "[5]; 250 g/ha, 35 DAA", "result": 0, "unit": "%"}]}, {"compound": "CS(=O)(=O)c1ccc(C(=O)C2C(=O)CCCC2=O)c([N+](=O)[O-])c1", "note": "[MST, 2-[4-(methylsulfonyl)-2-nitrobenzoyl]cyclohexane-1,3-dione]", "values": [{"measurement": "% control ECHCG", "setting": "[1]; 12.5 g/ha", "result": 15, "unit": "%"}, {"measurement": "% control ECHCG", "setting": "[1]; 25 g/ha", "result": 28, "unit": "%"}, {"measurement": "% control ECHCG", "setting": "[1]; 50 g/ha", "result": 70, "unit": "%"}, {"measurement": "% control ECHCG", "setting": "[1]; 75 g/ha", "result": 70, "unit": "%"}, {"measurement": "% control AMARE", "setting": "[2]; 20 g/ha", "result": 25, "unit": "%"}, {"measurement": "% control AMARE", "setting": "[2]; 40 g/ha", "result": 30, "unit": "%"}, {"measurement": "% control AMARE", "setting": "[2]; 60 g/ha", "result": 40, "unit": "%"}, {"measurement": "% control AMARE", "setting": "[2]; 80 g/ha", "result": 45, "unit": "%"}, {"measurement": "% control AMARE", "setting": "[2]; 100 g/ha", "result": 50, "unit": "%"}, {"measurement": "% control BIDPI", "setting": "[3]; 25 g/ha, 21 DAA", "result": 80, "unit": "%"}, {"measurement": "% control BIDPI", "setting": "[3]; 25 g/ha, 35 DAA", "result": 80, "unit": "%"}, {"measurement": "% control BIDPI", "setting": "[3]; 50 g/ha, 21 DAA", "result": 80, "unit": "%"}, {"measurement": "% control BIDPI", "setting": "[3]; 50 g/ha, 35 DAA", "result": 80, "unit": "%"}, {"measurement": "% control ELEIN", "setting": "[4]; 25 g/ha, 21 DAA", "result": 0, "unit": "%"}, {"measurement": "% control ELEIN", "setting": "[4]; 25 g/ha, 35 DAA", "result": 0, "unit": "%"}, {"measurement": "% control ELEIN", "setting": "[4]; 50 g/ha, 21 DAA", "result": 17, "unit": "%"}, {"measurement": "% control ELEIN", "setting": "[4]; 50 g/ha, 35 DAA", "result": 17, "unit": "%"}, {"measurement": "% control AMAVI", "setting": "[5]; 25 g/ha, 21 DAA", "result": 10, "unit": "%"}, {"measurement": "% control AMAVI", "setting": "[5]; 25 g/ha, 35 DAA", "result": 10, "unit": "%"}, {"measurement": "% control AMAVI", "setting": "[5]; 50 g/ha, 21 DAA", "result": 10, "unit": "%"}, {"measurement": "% control AMAVI", "setting": "[5]; 50 g/ha, 35 DAA", "result": 10, "unit": "%"}]}]}
